Experimental data reported in PMC12775434, “Ultra-large virtual screening unveils potent agonists of the neuromodulatory orphan receptor GPR139” (Nature Communications, 2025).
Where “and” joins values, the source holds several entries; their conditions need not be identical. Identical values can stand only once. Like-named read-outs stand apart in the source and are kept apart here.

Molecular target: T1, GPR139 (Homo sapiens, UniProt Q6DWJ6)
T1 sequence (Q6DWJ6 1-353): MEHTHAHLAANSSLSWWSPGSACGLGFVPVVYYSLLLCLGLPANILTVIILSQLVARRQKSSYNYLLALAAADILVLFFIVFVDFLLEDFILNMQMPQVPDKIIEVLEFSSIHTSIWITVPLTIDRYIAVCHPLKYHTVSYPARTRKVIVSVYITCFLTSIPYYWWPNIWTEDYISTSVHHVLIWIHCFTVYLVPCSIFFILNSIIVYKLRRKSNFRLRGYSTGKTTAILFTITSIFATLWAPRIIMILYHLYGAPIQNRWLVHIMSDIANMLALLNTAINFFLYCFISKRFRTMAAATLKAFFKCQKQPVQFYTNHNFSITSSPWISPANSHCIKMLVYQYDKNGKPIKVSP
Experiment: Inositol monophosphate (IP1) accumulation assay, GPR139-CHOk1
Type: cell-based
Conditions: for Emax: normalized to Lundbeck Cmp 1a
Procedure: Primary screening and pharmacological characterization of compounds were performed using a CHO-K1 cell line that stably expresses human GPR139 (GPR139-CHOk1). The GPR139-CHOk1 cell line was kindly provided by H. Lundbeck A/S, Denmark[24]. GPR139-CHOk1 cells were grown in Ham’s F-12 Kaighn’s Modification Medium (ThermoFisher #21127030) supplemented with 10% dialyzed fetal bovine serum (US origin, ThermoFisher #26400044), 100 units/mL Penicillin-Streptomycin (ThermoFisher #15140122), and 1 mg/mL Geneticin (ThermoFisher #11811031). […] M1R-CHOk1 cells were purchased from The Missouri S&T cDNA Resource Center (#CEM100TN00). M1R-CHOk1 cells were grown in Ham’s F12 Medium (ThermoFisher #21765029) supplemented with 10% fetal bovine serum (Brazilian origin, ThermoFisher #10270106), 100 units/mL Penicillin-Streptomycin, and 0.25 mg/mL Geneticin. HEK293A cells transiently transfected with GPR139 were used for additional pharmacological assessment of signaling pathways activated by GPR139. HEK239A cells were generously provided by Dr. Asuka Inoue, Tohoku University, Japan. HEK293A cells were grown in Dulbecco’s Modified Eagle Medium (ThermoFisher #31966047) supplemented with 10% dialyzed fetal bovine serum and 100 units/mL Penicillin-Streptomycin. Cell lines were maintained at 37 °C in humidified incubator equilibrated with 5% CO2.
HTRF IP-One Gq kit (Cisbio #62IPAPEC) was used to detect the accumulation of inositol monophosphate (IP1) as described in the work by Shehata et al.[26]. GPR139-CHOk1 cells were dissociated and resuspended in HEPES buffer. 50,000 cells in 5 µL and 5 µL test compounds diluted from DMSO stocks (final DMSO concentration of maximally 0.3%) in HEPES buffer supplemented with 40 mM LiCl were mixed in each well of white 384-well OptiPlate (PerkinElmer #6007290). The cells were incubated for 1 h at 37 °C. Then, 10 µL detection reagent composed of 2.5% Eu3 + -anti-IP1 antibody and 2.5% IP1-d2 diluted in lysis buffer was added, and the cells were incubated for 1 h at room temperature before measurements. Measurements were performed on EnVision Multimode Plate Reader (PerkinElmer) using excitation light of 340 nm and emission light of 615 nm and 665 nm. The time resolved-fluorescence resonance energy transfer (TR-FRET) 665 nm/615 nm ratio, which is inversely proportional to the IP1 accumulation, was used to determine the IP1 response.
Pharmacological data and statistical analyses were performed in GraphPad Prism v9–10 (Graphpad Software Inc., San Diego, CA), which are also specifically described in the figure and table legends. The functional assay responses were normalized to buffer (0%) and Lundbeck Cmp 1a or JNJ-63533054 (100%), for Ca^2+ and IP1 experiments in the GPR139-CHOk1 stable cell line or Ca^2+, G protein activation, and arrestin-3 recruitment experiments in the HEK293A cells transiently transfected with GPR139, respectively. Data are from at least three independent experiments, unless stated otherwise. Concentration-response curves were fitted applying non-linear regression using the log (agonist) versus response model with variable slope. ANOVA was applied for comparing results and determining statistical significance. Comparison of responses to the reference was performed using one-way ANOVA with Dunnett’s multiple comparisons test at significance threshold of p < 0.05. Comparison of responses across assays and ligands was performed using two-way ANOVA with Tukey’s multiple comparisons test at a significance threshold of p < 0.05.

[1] = Supplementary Table 2, mean ± SEM, read-out: pEC50 IP1 (converted)
[2] = Supplementary Table 2, read-out: Emax (%) IP1
[3] = log [Compound] M -4.5, replicate experiments
[4] = log [Compound] M -5.0, replicate experiments
[5] = log [Compound] M -5.5, replicate experiments
[6] = log [Compound] M -6.0, replicate experiments
[7] = log [Compound] M -6.5, replicate experiments
[8] = log [Compound] M -7.0, replicate experiments
[9] = log [Compound] M -7.5, replicate experiments
[10] = log [Compound] M -8.0, replicate experiments

Row | Emax (Supplementary Table 4, read-out: Emax (%), IP1 accumulation) | EC50 (Supplementary Table 4, read-out: pEC50, IP1 accumulation (converted)) | Structure (SMILES) | EC50 [1] | Emax [2] | IP1 response (% of Cmp 1a) [3] | IP1 response (% of Cmp 1a) [4] | IP1 response (% of Cmp 1a) [5] | IP1 response (% of Cmp 1a) [6] | IP1 response (% of Cmp 1a) [7] | IP1 response (% of Cmp 1a) [8] | IP1 response (% of Cmp 1a) [9] | IP1 response (% of Cmp 1a) [10] | IP1 response (% of Cmp 1a) (log [compound] M -4.5, individual replicates) | IP1 response (% of Cmp 1a) (log [compound] M -5.0, individual replicates) | IP1 response (% of Cmp 1a) (log [compound] M -5.5, individual replicates) | IP1 response (% of Cmp 1a) (log [compound] M -6.0, individual replicates) | IP1 response (% of Cmp 1a) (log [compound] M -6.5, individual replicates) | IP1 response (% of Cmp 1a) (log [compound] M -7.0, individual replicates) | IP1 response (% of Cmp 1a) (log [compound] M -7.5, individual replicates) | IP1 response (% of Cmp 1a) (log [compound] M -8.0, individual replicates)
1 |  |  | Cc1cc(-c2nc(CC(=O)NC(C)c3ccccc3)no2)sc1C (stereo not drawn) [Compound 1, CC(NC(=O)CC1=NOC(=N1)C2=CC(C)=C(C)S2)C=3C=CC=CC3] | 794 nM | 114 ± 5% | 99 % of Cmp 1a and 115 % of Cmp 1a and 112 % of Cmp 1a and 118 % of Cmp 1a | 92 % of Cmp 1a and 116 % of Cmp 1a and 103 % of Cmp 1a and 95 % of Cmp 1a | 125 % of Cmp 1a and 86 % of Cmp 1a and 77 % of Cmp 1a and 96 % of Cmp 1a | 63 % of Cmp 1a and 74 % of Cmp 1a and 39 % of Cmp 1a and 72 % of Cmp 1a | 35 % of Cmp 1a and 29 % of Cmp 1a and 17 % of Cmp 1a and 40 % of Cmp 1a | 21 % of Cmp 1a and 14 % of Cmp 1a and 6 % of Cmp 1a and 18 % of Cmp 1a | -5 % of Cmp 1a and 4 % of Cmp 1a and 0.66 % of Cmp 1a and 5.34 % of Cmp 1a | 1.43 % of Cmp 1a and -2.78 % of Cmp 1a and 0.322 % of Cmp 1a and 4 % of Cmp 1a |  |  |  |  |  |  |  | 
2 |  |  | Cc1cc(-c2nc(CC(=O)NC(C)c3ccccc3)no2)n(C)n1 (stereo not drawn) [Compound 1.16, CC(C1=CC=CC=C1)NC(CC2=NOC(C3=CC(C)=NN3C)=N2)=O] | 2510 nM | 118 ± 5% |  |  |  |  |  |  |  |  | 95 % of Cmp 1a and 98 % of Cmp 1a and 122 % of Cmp 1a and 128 % of Cmp 1a | 115 % of Cmp 1a and 88 % of Cmp 1a and 90 % of Cmp 1a and 87 % of Cmp 1a | 53 % of Cmp 1a and 54 % of Cmp 1a and 79 % of Cmp 1a and 67 % of Cmp 1a | 44 % of Cmp 1a and 38 % of Cmp 1a (2×) and 47 % of Cmp 1a | 8 % of Cmp 1a and 17 % of Cmp 1a and 10 % of Cmp 1a and 15 % of Cmp 1a | -3.74 % of Cmp 1a and -1.83 % of Cmp 1a and 5.46 % of Cmp 1a and 8 % of Cmp 1a | -0.538 % of Cmp 1a and 1 % of Cmp 1a and -0.216 % of Cmp 1a and 6 % of Cmp 1a | -11 % of Cmp 1a and -1 % of Cmp 1a and 0.939 % of Cmp 1a and 0.124 % of Cmp 1a
3 | 157 ± 16% | 200 nM | CC(NC(=O)CNC(=O)c1cccc(Cl)c1)c1ccccc1 (stereo not drawn) [JNJ-63533054, reference compound] |  |  | 132 % of Cmp 1a and 117 % of Cmp 1a and 179 % of Cmp 1a and 200 % of Cmp 1a | 149 % of Cmp 1a and 120 % of Cmp 1a and 161 % of Cmp 1a and 172 % of Cmp 1a | 112 % of Cmp 1a and 93 % of Cmp 1a and 135 % of Cmp 1a and 165 % of Cmp 1a | 129 % of Cmp 1a and 86 % of Cmp 1a and 138 % of Cmp 1a and 168 % of Cmp 1a | 93 % of Cmp 1a (2×) and 74 % of Cmp 1a and 97 % of Cmp 1a | 56 % of Cmp 1a and 47 % of Cmp 1a and 72 % of Cmp 1a and 84 % of Cmp 1a | 40 % of Cmp 1a and 23 % of Cmp 1a and 36 % of Cmp 1a and 37 % of Cmp 1a | 24 % of Cmp 1a and 9 % of Cmp 1a and 8 % of Cmp 1a and 2 % of Cmp 1a |  |  |  |  |  |  |  | 
